From patent publication US20040121029A1, “Antiulcer herbal composition(s)” (Council of Scientific & Industrial Research, priority 2002, published 2004)
Marks after values point to notes of the source that are not given here.

How the values were obtained:
[1] = system: pylorus ligation (PL) - induced gastric ulcers; assay: Pylorus ligation (PL) - induced ulcers in rats; format: in vivo; conditions: dose 50
Experimental: 4. Pylorus ligated induced ulcers: Animals were anaesthetized using pentobarbitione (35 mg/kg, i.p.), the abdomen was opened and pylorus ligation was done without causing any damage to its blood supply. The stomach was replaced carefully and the abdomen wall was closed in 2 layers with interrupted sutures. The animals were deprived of water during postoperative period. After 4 hours stomach were dissected out and contents were collected and ulcer index was calculated.

[2] = system: cold restraint stress (CRS) - induced gastric ulcers; assay: Cold restraint stress (CRS) - induced ulcers in rats; format: in vivo; conditions: dose 50
Experimental: 3. Cold restraint stress—induced ulcers: Rats were strapped on a wooden plank and kept them at 4-6° C. for 2 hours. The animals were then sacrificed by cervical dislocation and ulcers were scored on the dissected stomach.

SMILES: CNC(=C[N+](=O)[O-])NCCSCc1ccc(CN(C)C)o1 [Ranitidine]
- PL - induced ulcers % Curative Ratio [1]: 64.82%
- PL - induced ulcers Ulcer Index ([1]; mean ± SEM, six rats): 5.1 ± 1.3^b
- CRS - induced ulcers % Curative Ratio [2]: 79.68%
- CRS - induced ulcers Ulcer Index ([2]; mean ± SEM, six rats): 5.2 ± 1.1^c
